Assay results published in patent publication US11207312B2, “Metallo-beta-lactamase inhibitors and methods of use thereof” (priority 2017, dated 2021).

Assays:
[1] = tested on: P. aeruginosa MB9799 (efflux-, IMP-1 plasmid); format: cell-based, Pseudomonas aeruginosa; conditions: efflux − (MB9799) strain; imipenem at 2 μg/mL; in the presence of a class A, C, D serine β-lactamase inhibitor closely related to relebactam
From the text: (§1) The strain background is Pseudomonas aeruginosa PAO1. A wild-type (M135919) and an isogenic strain in which multiple efflux pumps have been disrupted genetically were used. The MBL IMP-1, obtained from a clinical isolate was introduced into the strain pair by the following process:
(§2) The plasmid DNA was transformed into parental MB5919 (oprD+, efflux+, inducible AmpC) and MB5890 (oprD+, efflux−, inducible AmpC) isogenic strains by electroporation.
(§3) The strain set was then used as a pair to determine the effect of metallo-β-lactamase inhibitors of Formula I on the MIC of imipenem and/or ceftazidime. A fixed concentration of antibiotic is included in standard microbroth MIC tests, usually at the CLSI breakpoint concentration, A fixed amount of a class A/C beta-lactamase inhibitor is also included to inhibit the resident Pseudomonas AmpC enzyme. A serial titration of the metallo-β-lactamase inhibitor was included and the concentration of metallo-β-lactamase inhibitor which restores susceptibility of the strain to the included antibiotic was recorded. That concentration of metallo-β-lactamase inhibitor was then compared between the two strains to determine the fold difference between the efflux+(MB9798) and efflux−(MI39799) strains, which indicates the extent to which the MBLi is subject to efflux.

[2] = target: VIM-2 (Escherichia coli, UniProt Q5U7L7); assay: biochemical; conditions: CCF2-FA fluorescence assay; read-out: VIM2 IC50
[3] = tested on: P. aeruginosa MB9798 (efflux+, IMP-1 plasmid); conditions: for MB9798 MITC95 P. aeruginosa uM Efflux WT: efflux + (MB9798) strain, imipenem at 2 μg/mL, in the presence of a class A, C, D serine β-lactamase inhibitor closely related to relebactam; for Efflux ratio: fold difference between efflux+ (MB9798) and efflux− (MB9799) strains
From the text: as §1, §2, §3

[4] = target: IMP-1 (Serratia marcescens, UniProt P52699); assay: biochemical; conditions: CCF2-FA fluorescence assay, 2 hours at 25° C.; read-out: IMP1 IC50
Sequence of IMP-1 (P52699 whole entry, looked up, species assumed): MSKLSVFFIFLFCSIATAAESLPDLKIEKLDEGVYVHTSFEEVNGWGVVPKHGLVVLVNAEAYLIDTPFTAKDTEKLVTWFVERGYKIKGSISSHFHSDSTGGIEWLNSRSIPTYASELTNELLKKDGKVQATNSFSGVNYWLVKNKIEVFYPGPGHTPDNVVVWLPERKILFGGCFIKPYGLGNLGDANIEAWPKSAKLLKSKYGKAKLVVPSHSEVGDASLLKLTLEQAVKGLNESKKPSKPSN
Description: (§4) The Class B enzyme activities were measured in the presence of the test inhibitor in a fluorescence assay against a commercially available substrate consisting of a cephalosporin core linking 7-hydroxycoumarin to fluorescein (CCF2-FA). The enzyme (NDM-1, IMP-1 or VIM-1) and the substrate were diluted in 100 mM KH2PO4 buffer (pH 7) containing 0.005% Tween-20 and 10 μM ZnSO4. In the assay, the final concentration of enzyme was 1 pM, 2 pM and 30 pM for NDM-1, IMP-1 and VIM-1, respectively, and the final concentration of CCF2-FA was 1.25 μM. The test inhibitor was dissolved in dimethylsulfoxide and diluted 1:50 in the assay, resulting in a final concentration range of 20 μM to 0.00063 μM. In a 384-well microplate, the test inhibitor was incubated with the metallo-β-lactamase enzyme and the substrate for 2 hours at 25° C. Fluorescence at 460 nm following excitation at 405 nm was measured. The IC50 value was determined from semi-logarithmic plots of enzyme inhibition versus inhibitor concentration, with a curve generated using a 4-parameter fit.

[5] = target: VIM-1 (Pseudomonas aeruginosa (strain ATCC 15692 / DSM 22644 / CIP 104116 / JCM 14847 / LMG 12228 / 1C / PRS 101 / PAO1), UniProt A0A0F7KYQ8); assay: biochemical; conditions: CCF2-FA fluorescence assay, 2 hours at 25° C.; read-out: VIM1 IC50
Description: as §4

[6] = target: NDM-1 (Klebsiella pneumoniae, UniProt C7C422); assay: biochemical; format: biochemical; conditions: CCF2-FA fluorescence assay, 2 hours at 25° C.
Sequence of NDM-1 (C7C422 whole entry, looked up, species assumed): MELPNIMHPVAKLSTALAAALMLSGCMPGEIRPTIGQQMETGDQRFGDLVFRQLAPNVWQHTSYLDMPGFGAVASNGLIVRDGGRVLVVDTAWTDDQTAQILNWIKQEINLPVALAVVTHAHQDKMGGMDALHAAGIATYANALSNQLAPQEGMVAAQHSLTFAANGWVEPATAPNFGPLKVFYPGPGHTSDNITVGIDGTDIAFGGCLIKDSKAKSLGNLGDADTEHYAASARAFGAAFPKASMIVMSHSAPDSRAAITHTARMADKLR
Description: as §4

[7] = tested on: Klebsiella pneumoniae expressing VIM-1 (IHMA599644); format: cell-based; conditions: with imipenem 1 μg/ml; 95% inhibition of bacterial growth
Description: (§5) The bacterial strains tested included the clinical strains Escherichia coil expressing NDM-1 (CLB30005, CLB30016), Serratia marcescens expressing IMP-1 (CL5741), and Klebsiella pneumoniae expressing VIM-1 (H-LMA599644). Inhibitor activity was measured in the presence and absence of imipenem in a 384-well microplate.
(§6) The clinical strains CLB30016, CL5741 and IHMA599644 were grown on trypticase soy agar containing 5% sheep's blood. The bacteria on agar plates were incubated at 35° C. with humidity overnight. The following day, individual colonies from each clinical strain were picked and resuspended in 5 ml saline to attain an OD600 of […], for CLB30016, C15741 and IHMA599644, respectively. These were further diluted 1:100 into 1.1× CAMHB and used to inoculate the test wells as described below.
(§7) Imipenem in 10 mM 3-(N-morpholino)propanesulfonic acid (MOPS, pH 7) was stored in single use aliquots at −80° C. […] On the day of the assay, 4 μl of antibiotic was added to 45 μl of bacteria followed by 1 μl of test compound and mixed by pipetting and with an orbital shaker. The concentration of antibiotic used in the assay was 1 μg/ml. Microplates were covered and incubated at 35° C. for 22 hours to 24 hours. At the end of the incubation, absorbance was determined using a spectrophotometer. The synergistic concentration of MBLI was determined by identifying the lowest concentration of test compound in the presence of a given concentration of antibiotic that was required to inhibit 95% of the growth of the bacteria. The results for Examples 1-209 are reported in Table 1, expressed as the concentration of compound that potentiated the action of antibiotic (imipenem) affecting 95% inhibition of bacterial growth (MITC95).

[8] = tested on: Serratia marcescens expressing IMP-1 (CL5741); format: cell-based; conditions: with imipenem 1 μg/ml; 95% inhibition of bacterial growth
Description: as §5, §6, §7

[9] = tested on: Escherichia coli expressing NDM-1 (CLB30016); format: cell-based; conditions: with imipenem 1 μg/ml; 95% inhibition of bacterial growth
Description: as §5, §6, §7

Compound | MB9799 MITC95 P. aeruginosa uM Efflux Mutant [1] [µM] | IC50 [2] [nM] | MB9798 MITC95 P. aeruginosa uM Efflux WT [3] [µM] | Efflux ratio [3] | IC50 [4] [nM] | IC50 [5] [nM] | IC50 [6] [nM] | IHMA599644 K. pneumoniae MITC95 VIM [7] [µM] | CL5741 S. marcescens MITC95 IMP [8] [µM] | CLB30016 E. coli MITC95 NDM [9] [µM]
NC1(CO)CCN(c2ccc(S(=O)(=O)N[C@@H]3CCNC3)c(S(N)(=O)=O)c2-c2nnn[nH]2)C1 (stereo partly drawn) [Example 84, 4-[3-amino-3-(hydroxymethyl)pyrrolidin-1-yl]-N1-[(3R)-pyrrolidin-3-yl]-3-(1H-tetrazol-5-yl)benzene-1,2-disulfonamide] | 1.56 | 46.9 | 6.25 | 4.00 | 33 | 7.27 | 19.7 | 1.56 | 1.56 | 0.78
NCCNS(=O)(=O)C1CCN(c2ccc(S(=O)(=O)NC[C@H](O)CN)c(S(N)(=O)=O)c2-c2nn[nH]n2)CC1 [Example 190, (R)—N1-(3-amino-2-hydroxypropyl)-4-(4-(N-(2-aminoethyl)sulfamoyl)piperidin-1-yl)-3-(2H-tetrazol-5-yl)benzene-1,2-disulfonamide] | 0.78 | 0.85 | 0.78 | 1.00 | 0.61 | 0.09 | 0.67 | 1.56 | 0.78 | 3.13
NC(=O)C1CCN(c2ccc(S(=O)(=O)N[C@@H]3CCNC3)c(S(N)(=O)=O)c2-c2nnn[nH]2)C1 (stereo partly drawn) [Example 92, 1-{4-[(3R)-pyrrolidin-3-ylsulfamoyl]-3-sulfamoyl-2-(1H-tetrazol-5-yl)phenyl}pyrrolidine-3-carboxamide] | 1.56 | 0.74 | 1.56 | 1.00 | 0.31 | 0.3 | 0.38 | 3.13 | 1.56 | 0.78
NC1CCN(c2ccc(S(=O)(=O)N[C@@H]3CCNC3)c(S(N)(=O)=O)c2-c2nn[nH]n2)C(=O)C1 (stereo partly drawn) [Example 158, 4-(4-amino-2-oxopiperidin-1-yl)-N1-((R)-pyrrolidin-3-yl)-3-(2H-tetrazol-5-yl)benzene-1,2-disulfonamide] | 3.13 | 22.8 | 6.25 | 2.00 | 88.4 | 1.22 | 7.19 | 0.78 | 1.56 | 0.10
NC[C@@H](O)CNS(=O)(=O)c1ccc(Nc2ncc[nH]2)c(-c2nn[nH]n2)c1S(N)(=O)=O [Example 203, (R)-4-((1H-imidazol-2-yl)amino)-N1-(3-amino-2-hydroxypropyl)-3-(2-tetrazol-5-yl)benzene-1,2-disulfonamide bis(2,2,2-trifluoroacetate)] | 1.56 | 19.6 | 3.13 | 2.00 | 26.4 | 8.5 |  | 0.78 | 0.78 | 0.20
NC[C@@H](O)CNS(=O)(=O)c1ccc(N2CC[C@@H](N)[C@@H](F)C2)c(-c2nn[nH]n2)c1S(N)(=O)=O (single isomer, unassigned) [Example 1] | 0.39 | 3.58 | 0.78 | 2.00 | 5.02 | 0.31 |  | 0.39 | 0.20 | 0.10
NC[C@@H](O)CNS(=O)(=O)c1ccc(N2CCC3(CC2)CNC(=O)OC3)c(-c2nn[nH]n2)c1S(N)(=O)=O [Example 26, (R)-N^1-(3-amino-2-hydroxypropyl)-4-(3-oxo-2-oxa-4,9-diazaspiro[5.5]undecan-9-yl)-3-(2H-tetrazol-5-yl)benzene-1,2-disulfonamide] | 3.13 | 2.74 | 6.25 | 2.00 | 1.02 | 0.63 |  | 12.50 | 6.25 | 12.50
NC[C@@H](O)CNS(=O)(=O)c1ccc(N2CC[C@H](CN)C2)c(-c2nn[nH]n2)c1S(N)(=O)=O [Example 124, N1-((R)-3-amino-2-hydroxypropyl)-4-((R)-3-(aminomethyl)pyrrolidin-1-yl)-3-(2H-tetrazol-5-yl)benzene-1,2-disulfonamide] | 1.56 | 37.2 | 3.13 | 2.00 | 23.1 | 3.18 |  | 0.78 | 0.78 | 0.39
